# Results as given in ChEMBL document CHEMBL6087458, “The Discovery of a Novel AXL/Triple Angiokinase Inhibitor Based on 6-Chloro-Substituted Indolinone and Side Chain Methyl Substitution Inhibiting Pancreatic Cancer Growth and Metastasis” (J Med Chem, 2025).
# The source made the active and inactive calls. The rule behind the calls is not given here.
# How the values were obtained:
# A549/TR = test: cells; settings: Homo sapiens, 72 h
# Description: Antiproliferative activity against human A549/Taxol cells assessed as cell viability incubated for 72 hrs by MTT assay
# MDA-MB-231 [1] = test: Down regulation of Ki67 expression in human MDA-MB-231 cells by immunofluorescence assay; type: functional, cell-based
# BXPC-3 [2] = test: Effect on AXL expression in human BXPC-3 cells; type: functional, cell-based
# BXPC-3 [3] = test: Induction of apoptosis in human BXPC-3 cells by annexin V-FITC/propidium iodide staining-based flow cytometry analysis; type: functional, cell-based
# [4] = Toxicity in mouse implanted with human BXPC-3 cells assessed as mortality at 25 to 50 mg/kg, po measured on day 11; type: organism-based; settings: in vivo, 264 h, dose 25-50 mg/kg, time 11 day
# MDA-MB-231 [5] = test: Inhibition of cell migration in human MDA-MB-231 cells assessed as decrease in cell migration incubated for 24 hrs by wound healing assay; type: functional, cell-based
# BXPC-3 [6] = test: Effect on N-cadherin expression in TGF-beta induced human BXPC-3 cells at 0.1 to 0.5 uM incubated for 24 hrs by immunofluorescence assay; type: functional, cell-based; settings: dose 0.1-0.5 µM
# BXPC-3 [7] = test: Inhibition of cell migration in human BXPC-3 cells assessed as decrease in cell migration incubated for 24 hrs by wound healing assay; type: functional, cell-based
# BXPC-3 [8] = test: Induction of apoptosis in human BXPC-3 cells assessed as increase in BAX expression at 0.1 to 1 uM incubated for 24 hrs by Western blot analysis; type: functional, cell-based; settings: dose 0.1-1 µM
# NCI-H1975 = test: cells; settings: Homo sapiens, NCI-H1975, 72 h
# Description: Antiproliferative activity against human NCI-H1975 cells assessed as cell viability incubated for 72 hrs by MTT assay
# [9] = Toxicity in mouse implanted with human BXPC-3 cells assessed as kidney damage at 50 mg/kg, po by H and E staining based analysis; type: organism-based; settings: in vivo
# [10] = Toxicity in mouse implanted with human BXPC-3 cells at 25 to 50 mg/kg, po measured on day 11; type: organism-based; settings: in vivo, 264 h, dose 25-50 mg/kg, time 11 day
# [11] = Cytotoxicity against human HK-2 cells assessed as inhibition of cell growth; type: toxicity, cell-based
# BXPC-3 [12] = test: Antitumor activity against human BXPC-3 cells xenografted in mouse assessed as reduction in tumor weight at 25 mg/kg, po administered for 14 days; type: functional; design: scale not given: the % may be the effect or the level left; settings: time 14 day
# [13] = AUC (0 to last) in Sprague-Dawley rat at 5 mg/kg, iv; type: ADME, organism-based; settings: Sprague-Dawley, in vivo
# BXPC-3 [14] = test: Induction of apoptosis in human BXPC-3 cells assessed as decrease in Bcl-2 expression at 0.1 to 1 uM incubated for 24 hrs by Western blot analysis; type: functional, cell-based; settings: dose 0.1-1 µM
# [15] = Cytotoxicity against human MCF-10A cells assessed as inhibition of cell growth; type: toxicity, cell-based
# [16] = Cytotoxicity against human HEK293 cells assessed as inhibition of cell growth; type: toxicity, cell-based
# Homo sapiens = species on record: Homo sapiens; test: Inhibition of PDGFR (unknown origin) by envision reader analysis
# MDA-MB-231 [17] = settings: Homo sapiens, MDA-MB-231, 168 h
# [18] = Metabolic stability in rat liver microsome assessed as half life measured upto 240 mins by HPLC analysis; type: ADME; settings: liver microsomes
# PC-9 = test: cells; settings: Homo sapiens, PC-9, 72 h
# Description: Antiproliferative activity against human PC-9 cells assessed as cell viability incubated for 72 hrs by MTT assay
# [19] = Volume of distribution at steady state in Sprague-Dawley rat at 5 mg/kg, iv; type: ADME, organism-based; settings: in vivo, read-out: Vdss
# [20] = Toxicity in mouse implanted with human BXPC-3 cells assessed as liver damage at 50 mg/kg, po by H and E staining based analysis; type: organism-based; settings: in vivo
# [21] = molecular target: Tyrosine-protein kinase ABL1 (Homo sapiens) (UniProt P00519); test: Inhibition of ABL1 (unknown origin) by envision reader analysis
# [22] = Tmax in Sprague-Dawley rat at 50 mg/kg, po; type: ADME, organism-based; settings: in vivo
# [23] = AUC (0 to last) in Sprague-Dawley rat at 50 mg/kg, po; type: ADME, organism-based; settings: Sprague-Dawley, in vivo
# HUVEC = test: Anti-angiogenesis activity in HUVEC assessed as reduction in tube formation at 0.5 to 2 uM incubated for 24 hrs by Calcein AM staining based light microscopic analysis; type: functional, cell-based; settings: Homo sapiens, dose 0.5-2 µM
# [24] = molecular target: Signal transducer and activator of transcription 3 (Homo sapiens) (UniProt P40763); test: Inhibition of STAT3 phosphorylation in human MDA-MB-231 cells incubated for 24 to 72 hrs by Western blot analysis; type: cell-based; settings: dose <= 5.0 µM, time 24-72 hrs
# BXPC-3 [25] = test: Down regulation of Ki67 expression in human BXPC-3 cells by immunofluorescence assay; type: functional, cell-based
# [26] = molecular target: BDNF/NT-3 growth factors receptor (Homo sapiens) (UniProt Q16620); test: Inhibition of TRKB (unknown origin) by envision reader analysis
# A549 = test: cells; settings: Homo sapiens, A549, 72 h
# Description: Antiproliferative activity against human A549 cells assessed as cell viability incubated for 72 hrs by MTT assay
# MDA-MB-231 [27] = test: Induction of apoptosis in human MDA-MB-231 cells by annexin V-FITC/propidium iodide staining-based flow cytometry analysis; type: functional, cell-based
# [28] = Toxicity in mouse implanted with human BXPC-3 cells assessed as body weight loss at 25 to 50 mg/kg, po measured on day 11; type: organism-based; settings: in vivo, 264 h, dose 25-50 mg/kg, time 11 day
# [29] = Half life in Sprague-Dawley rat at 5 mg/kg, iv; type: ADME, organism-based; settings: in vivo
# Mitochondrial membrane = test: Induction of mitochondrial membrane potential in mouse NIH/3T3 cells assessed as decrease in red fluorescence intensity incubated for 48 hrs by JC-1 staining based flow cytometry; type: cell membranes
# [30] = Cytotoxicity against human HaCaT cells assessed as inhibition of cell growth; type: toxicity, cell-based
# MDA-MB-231 [31] = test: Effect on N-cadherin expression in TGF-beta induced human MDA-MB-231 cells at 0.1 to 0.5 uM incubated for 24 hrs by immunofluorescence assay; type: functional, cell-based; settings: dose 0.1-0.5 µM
# BXPC-3 [32] = test: Antitumor activity against human BXPC-3 cells xenografted in mouse assessed as tumor growth inhibition at 25 mg/kg, po administered for 14 days; type: functional; settings: BXPC-3, 336 h, time 14 day, read-out: TGI
# NIH3T3 = test: Anti-fibrotic activity in mouse NIH3T3 cells assessed as reduction in fibronectin expression incubated for 48 hrs by Western blot analysis; type: functional, cell-based
# Sequence of Signal transducer and activator of transcription 3 (Homo sapiens) (P40763 whole entry): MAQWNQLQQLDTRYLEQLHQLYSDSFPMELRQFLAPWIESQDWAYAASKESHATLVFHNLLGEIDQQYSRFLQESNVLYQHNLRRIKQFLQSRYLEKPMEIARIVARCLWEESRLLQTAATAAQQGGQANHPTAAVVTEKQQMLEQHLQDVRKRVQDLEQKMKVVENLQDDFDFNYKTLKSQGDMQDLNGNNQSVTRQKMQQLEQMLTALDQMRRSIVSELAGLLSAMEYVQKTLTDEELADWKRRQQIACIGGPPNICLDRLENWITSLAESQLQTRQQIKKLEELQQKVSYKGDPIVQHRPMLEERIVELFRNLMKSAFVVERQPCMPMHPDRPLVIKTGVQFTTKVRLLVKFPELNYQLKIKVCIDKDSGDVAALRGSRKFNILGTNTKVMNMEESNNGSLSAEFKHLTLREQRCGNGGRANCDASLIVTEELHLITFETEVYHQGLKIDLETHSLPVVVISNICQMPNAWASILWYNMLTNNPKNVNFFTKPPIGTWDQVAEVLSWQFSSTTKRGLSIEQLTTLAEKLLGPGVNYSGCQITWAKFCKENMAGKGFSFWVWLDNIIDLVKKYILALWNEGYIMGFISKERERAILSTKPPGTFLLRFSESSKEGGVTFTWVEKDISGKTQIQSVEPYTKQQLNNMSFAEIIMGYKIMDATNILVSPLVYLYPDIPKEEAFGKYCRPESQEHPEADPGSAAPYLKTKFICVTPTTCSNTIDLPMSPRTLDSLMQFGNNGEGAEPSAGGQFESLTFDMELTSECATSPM
# Sequence of Tyrosine-protein kinase ABL1 (Homo sapiens) (P00519 whole entry): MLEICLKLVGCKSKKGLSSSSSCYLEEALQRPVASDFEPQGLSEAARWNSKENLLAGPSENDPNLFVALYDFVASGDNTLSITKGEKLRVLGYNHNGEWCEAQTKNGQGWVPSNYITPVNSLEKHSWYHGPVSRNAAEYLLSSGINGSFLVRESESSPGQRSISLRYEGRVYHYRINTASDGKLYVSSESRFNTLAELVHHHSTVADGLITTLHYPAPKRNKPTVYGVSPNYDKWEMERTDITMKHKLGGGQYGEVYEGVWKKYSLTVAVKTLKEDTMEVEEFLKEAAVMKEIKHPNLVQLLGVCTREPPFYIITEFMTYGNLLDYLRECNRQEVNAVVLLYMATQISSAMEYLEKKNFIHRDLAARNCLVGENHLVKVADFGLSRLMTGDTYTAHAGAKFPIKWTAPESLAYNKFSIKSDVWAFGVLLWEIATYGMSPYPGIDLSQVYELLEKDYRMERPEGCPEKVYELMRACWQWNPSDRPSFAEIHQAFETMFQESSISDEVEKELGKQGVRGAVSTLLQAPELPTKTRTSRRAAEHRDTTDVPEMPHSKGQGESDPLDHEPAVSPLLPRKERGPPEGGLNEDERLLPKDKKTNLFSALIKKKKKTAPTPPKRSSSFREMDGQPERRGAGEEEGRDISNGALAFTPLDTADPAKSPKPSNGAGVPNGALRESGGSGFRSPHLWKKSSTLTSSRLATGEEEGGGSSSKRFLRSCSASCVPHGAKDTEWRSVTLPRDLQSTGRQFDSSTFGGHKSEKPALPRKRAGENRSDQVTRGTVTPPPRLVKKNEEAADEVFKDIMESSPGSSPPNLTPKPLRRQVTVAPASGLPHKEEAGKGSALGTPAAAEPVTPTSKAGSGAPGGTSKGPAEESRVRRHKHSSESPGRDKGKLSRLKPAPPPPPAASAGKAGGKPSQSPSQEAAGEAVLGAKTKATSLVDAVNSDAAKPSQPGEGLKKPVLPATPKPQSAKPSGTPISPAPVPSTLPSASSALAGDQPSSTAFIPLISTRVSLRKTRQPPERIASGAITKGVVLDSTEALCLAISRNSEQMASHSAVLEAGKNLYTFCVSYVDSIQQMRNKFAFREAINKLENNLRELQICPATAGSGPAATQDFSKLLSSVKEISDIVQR
# Sequence of BDNF/NT-3 growth factors receptor (Homo sapiens) (Q16620 32-822 limits assumed): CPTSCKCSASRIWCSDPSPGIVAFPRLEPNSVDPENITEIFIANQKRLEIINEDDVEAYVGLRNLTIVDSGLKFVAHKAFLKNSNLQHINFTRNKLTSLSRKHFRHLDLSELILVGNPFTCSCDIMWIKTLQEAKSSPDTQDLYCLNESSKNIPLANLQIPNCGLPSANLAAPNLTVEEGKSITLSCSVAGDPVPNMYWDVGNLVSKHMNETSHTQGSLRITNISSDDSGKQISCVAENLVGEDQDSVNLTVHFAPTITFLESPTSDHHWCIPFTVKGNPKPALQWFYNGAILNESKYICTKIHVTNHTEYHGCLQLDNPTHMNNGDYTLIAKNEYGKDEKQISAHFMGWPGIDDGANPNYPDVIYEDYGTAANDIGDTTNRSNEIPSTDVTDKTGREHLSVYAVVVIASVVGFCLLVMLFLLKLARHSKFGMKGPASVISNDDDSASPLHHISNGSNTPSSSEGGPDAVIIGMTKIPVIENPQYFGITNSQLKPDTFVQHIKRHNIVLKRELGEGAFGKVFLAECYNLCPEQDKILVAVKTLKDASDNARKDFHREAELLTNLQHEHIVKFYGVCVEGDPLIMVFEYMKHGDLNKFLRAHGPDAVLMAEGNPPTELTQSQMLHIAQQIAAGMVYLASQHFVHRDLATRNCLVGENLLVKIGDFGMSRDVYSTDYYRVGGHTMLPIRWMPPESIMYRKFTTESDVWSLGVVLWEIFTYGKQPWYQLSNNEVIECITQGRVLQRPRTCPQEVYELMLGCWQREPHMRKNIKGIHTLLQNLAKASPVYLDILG
compound,measurement,setting,value
CCN1CCN(C(C)C(=O)N(C)c2ccc(N/C(=C3\C(=O)Nc4cc(Cl)ccc43)c3ccccc3)cc2)CC1 (racemic),IC50,A549/TR,4.77 µM
same,Activity,MDA-MB-231 [1],Active
same,Activity,BXPC-3 [2],Active
same,Activity,BXPC-3 [3],Active
same,Activity,[4],Non-toxic
same,inhibition,MDA-MB-231 [5],Active
same,Activity,BXPC-3 [6],Active
same,inhibition,BXPC-3 [7],Active
same,Activity,BXPC-3 [8],Active
same,IC50,NCI-H1975,4.38 µM
same,Activity,[9],Non-toxic
same,Activity,[10],Non-toxic
same,IC50,[11],8.35 µM
same,Activity,BXPC-3 [12],71%
same,AUC(0-t),[13],1770 ng·h/mL
same,Activity,BXPC-3 [14],Active
same,IC50,[15],> 10 µM
same,IC50,[16],> 10 µM
same,inhibition,Homo sapiens,Active
same,IC50,MDA-MB-231 [17],2.22 µM
same,half-life,[18],0.518 h
same,IC50,PC-9,5.91 µM
same,Vd,[19],12.8 L/kg
same,Activity,[20],Non-toxic
same,inhibition,[21],Active
same,Tmax,[22],8 h
same,AUC(0-t),[23],1150 ng·h/mL
same,Activity,HUVEC,Active
same,inhibition,[24],Dose-dependent-effect
same,Activity,BXPC-3 [25],Active
same,inhibition,[26],Active
same,IC50,A549,0.25 µM
same,Activity,MDA-MB-231 [27],Active
same,Activity,[28],Non-toxic
same,half-life,[29],4.36 h
same,Activity,Mitochondrial membrane,Active
same,IC50,[30],> 10 µM
same,Activity,MDA-MB-231 [31],Active
same,inhibition in vivo at 25 mg/kg,BXPC-3 [32],96.7%
same,Activity,NIH3T3,Active
